Reference: US10307406B2, “Methods and compositions for re-activating Epstein-Barr virus and screening compounds therefor” (The Wistar Institute of Anatomy and Biology, priority 2013, dated 2019)
pEC50: −log10 of the molar value. Where two headings read alike, the source gives them in different places.

Tests used:
[1] = system: p38 MAPK, S6, p90RSK and p53 phosphorylation in Mutul cells; test: immunoblot for phosphorylation of p38 MAPK, S6, p90RSK and p53; format: cell-based; details: 0.5 h
Procedure: (§1) FIGS. 7A-C are gels illustrating the mechanism of EBV reactivation of the compounds in distinct from HDAC inhibitors and TPA. FIG. 7A is Mutul cells treated with 2% DMSO, 2 mM NaB, 20 ng/mL TPA, or 1 μM compound for 48 h, immunoblotted, and probed for acetylation of histone H3 and β-actin. FIG. 7B is Mutu-LCL352 cells treated and probed as in described in FIG. 7A. FIG. 7C is Mutul cells treated with controls or compounds for 0.5 h, immunoblotted, and probed for phosphorylated forms of p90RSK, p53, p38MAPK, S6, total MAPK, and β-actin.
Cells were incubated with DMSO, 2 mM sodium butyrate (NaB), […] 12-O-tetradecanoyl phorbol-13-acetate (TPA) or 1 μM of compounds for 72 h, washed in PBS once and lysed in 1×Laemmii buffer. Protein extract equivalent to 10^5 cells were loaded on 8-16% SDS-PAGE gels (Invitrogen) and transferred to nitrocellulose membranes (Millipore). Lytic reactivation was detected with a rabbit polyclonal anti-ZTA and mouse monoclonal anti-EA-D (Abcam) antibodies diluted in 5% evaporated milk and incubated with the membranes for 2 h at RT, or overnight at 4° C., followed by secondary anti-mouse or rabbit HRP-conjugated (Roche). Rabbit antibodies against phospho-p38 MAPK, -S6, -p90RSK and -p53 West Pico were mixed into a PathScan® cocktail (Cell Signaling). […]

latent EBV = details: cited from earlier work
[2] = in vivo; cited from earlier work
[3] = system: histone H3 acetylation in Mutul and Mutu-LCL352 cells; test: immunoblot for acetylation of histone H3; format: cell-based; details: 48 h; 2 mM NaB or 1 μM compound
Procedure: as §1
Mutul and Mutu-LCL352 cell lines were used to test whether the newly identified EBV activators function as […] by increasing acetylation on histone H3.

Mutul-Hp-Luc cells [4] = format: cell-based, Epstein-Barr Virus (EBV)
EBV positive Mutul cells = test: resazurin cytotoxicity assay with or without GCV
Mutul-Hp-Luc cells [5] = test: microbe, parasite or virus in culture; format: cell-based, Epstein-Barr Virus (EBV)
Excerpt: BHLF1 promoter (Hp) or the BZ1F1 promoter (Zp) was cloned into pHEBO plasmid into Nhel and HindIII restriction sites of pHEBO-luc plasmid (Yates, 1985, Nature, 313:812-815; and Deng, 2001, J. Virol. 75:10334-10347). To create pHEBO-GFP, most of luciferase gene was excised by BsrGI and HindIII sites and replaced with EGFP excised from pEGFP-N1 (Clontech). Mutul cells were transfected with the new pHEBO-Zp-luc, pHEBO-Hp-luc (FIG. 8) or pHEBO-Hp-GFP constructs and transfected cells were selected with 400 μg/mL of Hygromycin. After 2 weeks of selection, stable hygromycin-resistant cells were seeded at 5000 per well in 384 well white plates and assayed as described below.
Columns 1, 2, 23, and 24 received DMSO (0.2% final concentration). The remaining 320 wells in columns 3-22 received test compounds at a final concentration of 10 μM cumulative concentration for the 5 compounds/2 μM individual compound concentration/0.2% final DMSO concentration. Cells were incubated with compounds for 48 h at 37° C./5% CO2. Twenty microliters of Steady-Glo® Luciferase Reagent (Promega) was added to assay plates and incubated for 15 minutes at room temperature. Plates were centrifuged and luminescence was measured on an EnVision® Excite multilabel microplate reader, using the ultrasensitive luminescence measurement technology (Perkin Elmer).
To confirm the activity of candidate compounds identified after deconvolution that exceeded the cutoff parameter, liquid stock from the screening library was retested as single compounds at a final concentration of 10 μM, using assay conditions identical to the primary high-throughput screen.
To eliminate confirmed actives that may interfere with the assay technology by inhibiting luciferase, the activity of the compounds were tested in a biochemical luciferase assay counterscreen (Auld, 2008, J. Med. Chem., 51:2372-2386). To quantitatively assess the activity and prioritize compounds for further follow-up, fresh liquid stocks prepared from powders were reformatted as a 10 point dilution series spanning at least 3-logs, starting at 10 μM, the initial screening concentration. Data for test compounds was normalized to DMSO and NaB (1 mM) plate controls to calculate fold stimulation and z-factor (σ is variance/standard deviations), μ is mean of positive (p) and negative (n) controls). Z-factor is a statistical measurement that assesses the quality of the assay and predicts if the assay can be useful in a high-throughput screening. Z factors above 0.5 are considered acceptable. The screen's Z-factor was above 0.
The relative EC50 for each compound, i.e., the concentration of compound that produced 50% of the maximum effect, was calculated using a […] non-linear regression analysis (GraphPad Prism® 6 software). Error bars represent SD for each concentration of a compound. To assist with decision making points, compound activities were stratified into 4 categories: […]

Mutul cells = test: cell viability by trypan blue dye exclusion, with or without GCV; format: cell-based; details: 6 days, compounds at 1 μM
Procedure: Mutul-Hp-Luc were seeded at 0.2 million per mL and treated with Compound 4. Compound 4 was added again 48 h. Freshly made GCV was added on Day 2 for 4 days twice a day, in the morning and 8 h later. Cell viability was measured either with Resazurin 5 days after the first Compound 4 treatment, or the cells were stained with Trypan blue on Day 6. […] Live cells were counted by the Trypan Blue stain exclusion method. […] Different concentrations of Compound 4 combined with GCV (gray bars) or without GCV (black bars) were used. Cell viability was measured as a percentage of DMSO-treated control cells. 590 nm fluorescence values are proportionate to the cell viability. […] Daily viability assay for Mutul cells treated with either DMSO, NaB, compound 4 (0.5 μM) with or without GCV was measured.
It was tested whether combination of the newly identified activators and GCV would increase selective cell killing of EBV infected cells. […] Specifically, gangcyclovir (GCV) was combined with a sublethal dose of compounds (1 μM) to determine if it could induce cell death in Mutul cells after six days of treatment. Cell viability was measured by trypan blue dye exclusion.

EBV positive BL cells = details: cited from earlier work
[6] = Mutul-Hp-Luc cells, up to 2 mM NaB
[7] = human gammaherpesvirus 4, read-out: EC50 values

CCCCCCCCCCCCCC(=O)O[C@@H]1[C@@H](C)[C@@]2(O)[C@@H](C=C(CO)C[C@]3(O)C(=O)C(C)=C[C@@H]23)[C@@H]2C(C)(C)[C@]12OC(C)=O [TPA, 12-O-tetradecanoyl phorbol-13-acetate]
phosphorylation of p38 MAPK, S6, p90RSK and p53 [1]: increase in phosphorylation

arginine butyrate
concentrations required to trigger the latent to lytic switch (latent EBV): millimolar concentrations
efficacy in clinical trial [2]: efficacious
tolerability in clinical trial [2]: not tolerated due to toxicity

CCCC(=O)[O-].[Na+] [NaB, sodium butyrate]
acetylation of histone H3 [3]: caused histone acetylation in both cell lines
cell viability on longer exposure (Mutul-Hp-Luc cells [4]; 2 mM NaB, longer periods than 48 h): loss of cell viability
cell toxicity (Mutul-Hp-Luc cells [4]; [6]): relatively low cell toxicity
signal-to-background (Mutul-Hp-Luc cells [4]; [6]): 20-40 fold
luciferase response to NaB (Mutul-Hp-Luc cells [4]; pHEBO-Hp-Luc in Mutul cells, 2 mM NaB vs DMSO): > 20 fold
concentrations required to trigger the latent to lytic switch (latent EBV): millimolar concentrations
pharmacokinetics [2]: unsuitable pharmacokinetics
synergy with GCV on killing EBV-positive cells (EBV positive Mutul cells; Mutul cells, combination with 10 μg/mL GCV): did not synergize with GCV
toxicity to cells (EBV positive Mutul cells; with or without GCV, daily resazurin): toxic to cells regardless of EBV positive status

COc1ccc(C2c3c(c4cc(Cl)ccc4n3C(=O)c3ccc(Cl)cc3)CCN2C(=O)c2ccc(F)cc2)cc1 (centres unmarked) [Compound 23]
pEC50 (Mutul-Hp-Luc cells [5]; human gammaherpesvirus 4, 48 h): < 6.30

COc1ccc(C2c3[nH]c4ccc(Cl)cc4c3CCN2C(=O)c2ccccc2F)cc1 (centres unmarked) [Compound 13]
pEC50 (Mutul-Hp-Luc cells [5]; human gammaherpesvirus 4, 48 h): < 6.30

COc1ccc(C2c3c(c4cc(Cl)ccc4n3C(=O)c3ccc(F)cc3)CCN2C(=O)c2ccc(F)cc2)cc1 (centres unmarked) [Compound 22]
pEC50 (Mutul-Hp-Luc cells [5]; human gammaherpesvirus 4, 48 h): > 6.30
pEC50 (Mutul-Hp-Luc cells [5]; [7]): 6.70 to 7.30

COc1ccc(C2c3[nH]c4ccc(Cl)cc4c3CCN2C(=O)c2c(Cl)cccc2Cl)cc1 (centres unmarked) [Compound 15]
pEC50 (Mutul-Hp-Luc cells [5]; human gammaherpesvirus 4, 48 h): < 6.30

COc1ccc(C2c3[nH]c4ccc(Cl)cc4c3CCN2S(=O)(=O)c2ccc(OC)cc2)cc1 (centres unmarked) [Compound 26]
pEC50 (Mutul-Hp-Luc cells [5]; human gammaherpesvirus 4, 48 h): < 6.30

COc1ccc(C2c3[nH]c4ccc(Cl)cc4c3CCN2C(=O)c2ccccc2OC)cc1 (centres unmarked) [Compound 17]
pEC50 (Mutul-Hp-Luc cells [5]; human gammaherpesvirus 4, 48 h): < 6.30

Nc1nc(O)c2ncn(COC(CO)CO)c2n1 [GCV, gancyclovir]
reduction of cell viability as single agent (Mutul cells): −10%

CC(C)C[C@H](NC(=O)[C@H](Cc1ccccc1)NC(=O)c1cnccn1)B(O)O [bortezomib]
activation of latent EBV (EBV positive BL cells): activator of latent EBV in a limited number of EBV positive BL cells

COc1ccc(C2c3[nH]c4ccc(Cl)cc4c3CCN2C(=O)c2ccc(F)cc2)cc1 (centres unmarked) [Compound 18]
pEC50 (Mutul-Hp-Luc cells [5]; human gammaherpesvirus 4, 48 h): < 6.30

COc1ccc(C2c3[nH]c4ccc(Cl)cc4c3CCN2C(=O)c2ccccc2C(F)(F)F)cc1 (centres unmarked) [Compound 16]
pEC50 (Mutul-Hp-Luc cells [5]; human gammaherpesvirus 4, 48 h): < 6.30

COC(=O)c1ccccc1NC(=O)N1CCc2c([nH]c3ccc(Cl)cc23)C1c1ccc(OC)cc1 (centres unmarked) [Compound 10]
pEC50 (Mutul-Hp-Luc cells [5]; human gammaherpesvirus 4, 48 h): > 6.30
pEC50 (Mutul-Hp-Luc cells [5]; [7]): 6.70 to 7.30

COc1ccc(C2c3[nH]c4ccc(Cl)cc4c3CCN2C(=O)c2ccc(C(F)(F)F)cc2)cc1 (centres unmarked) [Compound 20]
pEC50 (Mutul-Hp-Luc cells [5]; human gammaherpesvirus 4, 48 h): > 6.30

COc1ccc(C2NCCc3c2[nH]c2ccc(Cl)cc32)cc1 (centres unmarked) [Compound 11]
pEC50 (Mutul-Hp-Luc cells [5]; human gammaherpesvirus 4, 48 h): > 6.30

COc1ccc(C(=O)N2CCc3c([nH]c4ccc(Cl)cc34)C2c2ccc(OC)cc2)cc1 (centres unmarked) [Compound 21]
pEC50 (Mutul-Hp-Luc cells [5]; human gammaherpesvirus 4, 48 h): > 6.30
pEC50 (Mutul-Hp-Luc cells [5]; [7]): 6.70 to 7.30

COc1ccc(C2c3[nH]c4ccc(Cl)cc4c3CCN2C(=O)c2cccc(OC)c2)cc1 (centres unmarked) [Compound 12]
pEC50 (Mutul-Hp-Luc cells [5]; human gammaherpesvirus 4, 48 h): > 6.30
pEC50 (Mutul-Hp-Luc cells [5]; [7]): 6.70 to 7.30

COc1ccc(C2c3[nH]c4ccc(Cl)cc4c3CCN2C(=O)c2ccc(Cl)cc2)cc1 (centres unmarked) [Compound 19]
pEC50 (Mutul-Hp-Luc cells [5]; human gammaherpesvirus 4, 48 h): > 6.30

COc1ccc(C2c3[nH]c4ccc(Cl)cc4c3CCN2C(=O)c2ccccc2Cl)cc1 (centres unmarked) [Compound 14]
pEC50 (Mutul-Hp-Luc cells [5]; human gammaherpesvirus 4, 48 h): < 6.30

COc1ccc(C2c3[nH]c4ccc(Cl)cc4c3CCN2S(=O)(=O)c2ccccc2OC)cc1 (centres unmarked) [Compound 25]
pEC50 (Mutul-Hp-Luc cells [5]; human gammaherpesvirus 4, 48 h): < 6.30
